Measurements taken from patent US5047244A, “Mucoadhesive carrier for delivery of therapeutical agent” (priority 1988, dated 1991).
Converted amounts (≈) assume the structure as drawn.

Legend:
Assay type in all cases: physicochemical
[1] = In vitro therapeutic agent release (USP Dissolution Test Method II, 0.05M isotonic phosphate buffer pH 6.0 with 30 weight percent PEG 400); conditions: for In vitro release of dehydroepiandrosterone: Example 12 carrier, 5 mg DHEA; for In vitro release of 17 β-estradiol: Example 17 carrier (Table XIX, mannitol); for Therapeutic Agent Release Parameter, T, 20% / Therapeutic Agent Release Parameter, T, 50% / Therapeutic Agent Release Parameter, T, 75% / Therapeutic Agent Release Parameter, T, 90%: Example 7 carrier (Table VII), 20 mg agent, agent:PEG 8000 1:2
Experimental: Therapeutic agent release studies were conducted using an Erweka dissolution test assembly in compliance with Dissolution Test Method II as described in The United States Pharmacopeia, 24th revision (USP XXIV). Five hundred milliliters of a 0.1M phosphate buffer dissolution fluid was maintained at about 37° C. (about 100° F.) and the […] was rotated at 50 revolutions per minute (rpm). At predetermined time points, samples of approximately 3 milliliters of the test medium were withdrawn from the flasks and immediately replaced with an equivalent volume of blank buffer. Analysis of the samples was performed by ultraviolet spectrophotometry. […] The time to achieve 20%, 50% and 80% by weight dissolution of the piroxicam was estimated from a linear plot of percent dissolved versus time.
Therapeutic agent release testing was conducted by the USP Dissolution Test Method II. The dissolution medium chosen was 500 ml of a 0.05M isotonic phosphate buffer having a 6.0 pH with 30 weight percent PEG 400.
An equivalent of 20 mg of albuterol in a mucosal composition of a albuterol:PEG 8000 weight in a ratio of 1:2 was included in each carrier. […] Plots of weight percent therapeutic agent released versus time were constructed and the drug release parameter T (in hours) for a given weight and percent drug released was calculated from the plots.

[2] = as above; conditions: for In vitro release of 17 β-estradiol: Example 17 carrier (Table XIX, mannitol); for In vitro release of therapeutic agent: 20 mg piroxicam
[3] = Saturation solubility in phosphate buffer; conditions: 0.1m phosphate buffer, aqueous buffer

## C[C@]12CC[C@H](O)CC1=CC[C@@H]1[C@@H]2CC[C@]2(C)C(=O)CC[C@@H]12 [dehydroepiandrosterone]
[1]; 6 hours
  In vitro release of dehydroepiandrosterone: 20 weight percent
[1]; 10.5 hours
  In vitro release of dehydroepiandrosterone: 30 weight percent
[1]; 13 hours
  In vitro release of dehydroepiandrosterone: 40 weight percent
[1]; 23 hours
  In vitro release of dehydroepiandrosterone: 50 weight percent

## C[C@]12CC[C@@H]3c4ccc(O)cc4CC[C@H]3[C@@H]1CC[C@@H]2O [17 β-estradiol]
[1]; Example 10 carrier, 17 β-estradiol, 1 hour
  In vitro release of therapeutic agent: 2.5 weight percent
[1]; Example 10 carrier, 17 β-estradiol, 2 hours
  In vitro release of therapeutic agent: 4 weight percent
[1]; Example 10 carrier, 17 β-estradiol, 5 hours
  In vitro release of therapeutic agent: 9.5 weight percent
[1]; Example 10 carrier, 17 β-estradiol, 24 hours
  In vitro release of therapeutic agent: 46.3 weight percent
[1]; 5 hours
  In vitro release of 17 β-estradiol: 9.5 weight percent
[1]; 10 hours
  In vitro release of 17 β-estradiol: 15 weight percent
[2]; Example 10 carrier, 17 β-estradiol
  Order of release: apparent zero order process
[2]; 15 hours
  In vitro release of 17 β-estradiol: 17 weight percent
[2]; 20 hours
  In vitro release of 17 β-estradiol: 19.5 weight percent

## CC(N)C(O)c1ccccc1 (stereo not drawn) [Phenylpropanolamine]
[1]
  Therapeutic Agent Release Parameter, T, 20%: 0.58 h
  Therapeutic Agent Release Parameter, T, 50%: 2.83 h
  Therapeutic Agent Release Parameter, T, 75%: 6.04 h
  Therapeutic Agent Release Parameter, T, 90%: 8.42 h

## CN1C(C(=O)Nc2ccccn2)=C(O)c2ccccc2S1(=O)=O [piroxicam]
[3]
  solubility: ~7700 µg/mL (≈ 23.2 mM)
[1]; Example 9 carrier, 20 mg piroxicam, 6 hours
  In vitro release of therapeutic agent: 24.1 weight percent
[1]; Example 9 carrier, 20 mg piroxicam, 23 hours
  In vitro release of therapeutic agent: 56 weight percent
[1]; Example 9 carrier, 20 mg piroxicam, one hour
  In vitro release of therapeutic agent: 5 weight percent
[1]; Example 9 carrier, piroxicam
  Order of release: apparent zero order rate
[2]; Example 9 carrier, three hours
  In vitro release of therapeutic agent: 13 weight percent
[2]; Example 9 carrier, two hours
  In vitro release of therapeutic agent: 9 weight percent
[2]; Example 9 carrier, piroxicam, after 23 hours
  Therapeutic agent remaining in the carrier: 36-47 weight percent

## CC(C)(C)NCC(O)c1ccc(O)c(CO)c1 (stereo not drawn) [Albuterol]
[1]
  Therapeutic Agent Release Parameter, T, 20%: 0.58 h
  Therapeutic Agent Release Parameter, T, 50%: 3.16 h
  Therapeutic Agent Release Parameter, T, 75%: 5.67 h
  Therapeutic Agent Release Parameter, T, 90%: 6.83 h
[1]; Example 13 carrier (Table XV)
  Time to release 20% by weight of albuterol: approximately 0.8 hr
  Time to release 50% by weight of albuterol: ~2.6 h
  Time to release 75% by weight of albuterol: ~6 h
  Time to release 90% by weight of albuterol: ~10.5 h
[1]; Example 14 carrier (Table XVI)
  Time to release 20% by weight of albuterol: approximately 1 hr
  Time to release 50% by weight of albuterol: ~3.5 h
  Time to release 75% by weight of albuterol: ~8 h
  Time to release 90% by weight of albuterol: ~15 h
[1]; Example 15 carrier (Table XVII), 3 hours
  In vitro release of albuterol: 22 weight percent
[1]; Example 15 carrier (Table XVII), 7.5 hours
  In vitro release of albuterol: 50 weight percent
[1]; Example 15 carrier (Table XVII), 12 hours
  In vitro release of albuterol: 75 weight percent
[1]; Example 15 carrier (Table XVII), 18 hours
  In vitro release of albuterol: 90 weight percent
[1]; Example 16 carrier (Table XVIII), 2 hours
  In vitro release of albuterol: 27 weight percent
[1]; Example 16 carrier (Table XVIII), 5 hours
  In vitro release of albuterol: 50 weight percent
[1]; Example 16 carrier (Table XVIII), 10 hours
  In vitro release of albuterol: 73 weight percent
[1]; Example 16 carrier (Table XVIII), 19 hours
  In vitro release of albuterol: 90 weight percent
